Results taken from PubChem BioAssay (NCI).
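Grown in 96-well plates, cells were treated for 48 hours with each compound at five concentrations. Insufficient inhibition: endpoint recorded as highest concentration tested. GI50 is the concentration that inhibits growth by half. At the TGI there is no net growth.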

How the values were obtained:
Experiment in all cases: NCI anticancer screen, dose series, 48 h
A498 renal = system: A498 renal
LOX IMVI melanoma = system: LOX IMVI melanoma
M14 melanoma = system: M14 melanoma
OVCAR-8 ovarian = system: OVCAR-8 ovarian
SK-MEL-5 melanoma = system: SK-MEL-5 melanoma
SNB-19 CNS = system: SNB-19 CNS
UACC-62 melanoma = system: UACC-62 melanoma
BT-549 breast = system: BT-549 breast
MDA-MB-231 breast = system: MDA-MB-231 breast
MDA-MB-435 = system: MDA-MB-435

SMILES | TGI (A498 renal) [µM] | TGI (LOX IMVI melanoma) [µM] | TGI (M14 melanoma) [µM] | TGI (OVCAR-8 ovarian) [µM] | TGI (SK-MEL-5 melanoma) [µM] | TGI (SNB-19 CNS) [µM] | TGI (UACC-62 melanoma) [µM] | TGI (BT-549 breast) [µM] | TGI (MDA-MB-231 breast) [µM] | TGI (MDA-MB-435) [µM] | GI50 (A498 renal) [µM] | GI50 (BT-549 breast) [µM] | GI50 (MDA-MB-231 breast) [µM] | GI50 (MDA-MB-435) [µM] | GI50 (OVCAR-8 ovarian) [µM] | GI50 (SK-MEL-5 melanoma) [µM] | GI50 (UACC-62 melanoma) [µM] | GI50 (LOX IMVI melanoma) [µM] | GI50 (M14 melanoma) [µM] | GI50 (SNB-19 CNS) [µM]
CC1=NN(C(=O)c2ccc(Cl)cc2)C(=O)/C1=C/c1ccccc1O | > 100 | > 100 | > 100 | > 100 | > 100 | > 100 | > 100 |  |  |  |  |  |  |  |  |  |  |  |  | 
c1cncc(CNCc2cccnc2)c1 | > 100 | > 100 | > 100 | > 100 | > 100 | > 100 | > 100 | > 100 | > 100 | > 100 |  |  |  |  |  |  |  |  |  | 
C1CC2CN(CCCN3CCOCC3)C(C1)O2 (centres undefined) | > 100 | > 100 | > 100 | > 100 | > 100 | > 100 | > 100 | > 100 | > 100 | > 100 |  |  |  |  |  |  |  |  |  | 
NCCOCCOCCNc1nc(-c2ccc(Cl)cc2)nc(N2CCN(c3ccccn3)CC2)n1 | 7.71 |  |  | 30.6 | 3.19 |  | 3.91 | 21.2 | 6.01 | 3.49 | 1.33 | 4.48 | 2.55 | 1.78 | 4.06 | 1.71 | 1.99 |  |  | 
O=c1cc(N/N=C/c2ccc(F)cc2)c2cc(Cl)ccc2[nH]1 | 92.7 | > 100 | > 100 | > 100 | 14.1 | > 100 | > 100 | 44.5 | 51.7 | > 100 | 14.8 | 15.8 | 16 | 13.4 | 19.8 | 3.54 | 16.7 | 25.3 | 10.2 | 23.5
COC(=O)COc1ccc(/C=C2/N=C(c3ccccc3)N(c3c(C)n(C)n(-c4ccccc4)c3=O)C2=O)cc1 | 44.1 | 32.8 | > 100 | 33.7 | 60.7 | > 100 | 32.1 | 42 | 45.1 | 47 | 26.1 | 17.1 | 21.8 | 19.7 | 18.8 | 26 | 17.6 | 18 | 32.5 | 36.3
Cc1cc(N=C2C=C(Br)C(=O)C(Br)=C2)cc(CN(CC(=O)O)CC(=O)O)c1O | > 100 |  | > 100 | > 100 | > 100 | > 100 | > 100 |  | > 100 | > 100 |  |  |  |  |  |  |  |  |  | 
CN1CCc2c1nc(-c1ccc(Cl)cc1)c1c2N(C)CC1 | 62.6 | 22.5 | 20.4 | > 100 | 26.6 | > 100 | 25.7 |  |  |  |  |  |  |  |  |  |  |  |  | 
Cc1c(-c2ccnc(N)n2)c2c(n1Cc1ccccc1)C(=O)c1ccccc1C2=O |  | 6.65 | > 100 |  | 27.8 | > 100 | > 100 | 8.4 | 30.2 | 24.2 |  | 2.99 | 1.73 | 4.84 |  | 12.8 | > 100 | 1.98 | 16.2 | 18.1
Cc1nn2c(/C=C3/C(=O)Nc4cc(Cl)ccc43)c(-c3ccccc3)nc2s1 | 72 | 6.02 | > 100 | > 100 | > 100 | > 100 |  | > 100 | 5.62 | > 100 | 15.5 | 6.63 | 1.99 | 3.72 | 2.89 | 3.17 |  | 2.41 | 6.54 | 10.7
C=CCC1=C(C)C[C@@H]2CCC(=O)C=C12 | > 100 | > 100 | > 100 | > 100 | > 100 | > 100 | > 100 |  |  |  |  |  |  |  |  |  |  |  |  | 
COC(=O)c1c2c(cc3c1CC1(Cc4cc5c(c(C(C)=O)c4C1)CCC5)C3)CCC2 (centres undefined) |  | > 100 | > 100 | > 100 | > 100 | > 100 | > 100 |  |  |  |  |  |  |  |  |  |  |  |  | 
C#Cc1c(C)c(/C=C/C(C)=C/C(=O)OC)n(C)c1C | > 100 | > 100 | > 100 | > 100 |  | > 100 | > 100 |  |  |  |  |  |  |  |  |  |  |  |  | 
COc1ccc(/C(Cl)=C/c2cc(OC)ccc2OC)cc1 | > 100 |  | > 100 | > 100 | > 100 | > 100 | > 100 |  |  |  |  |  |  |  |  |  |  |  |  | 
COc1ccc(CCn2c(=O)c3ccccc3n(C)c2=O)cc1 | > 100 |  | > 100 | > 100 | > 100 | > 100 | > 100 |  |  |  |  |  |  |  |  |  |  |  |  | 
COc1cc2c(cc1OCCCCCCN1CCN(CC(=O)Nc3ccc(Cl)cc3C(=O)c3ccccc3Cl)CC1)N=CC1CCCN1C2=O (centres undefined) | 1 | 0.305 |  | 0.607 | 0.942 | 0.632 | 0.975 | 0.898 | 1.07 | 0.304 | 0.535 | 0.252 | 0.383 | 0.157 | 0.201 | 0.513 | 0.408 | 0.157 |  | 0.244
CC(=O)O[C@]1(C)OC(=O)[C@@H](CC(C)C)N1[N+](=O)[O-] | > 100 | > 100 | > 100 | > 100 | > 100 | > 100 | > 100 |  |  |  |  |  |  |  |  |  |  |  |  | 
CCOC(=O)N1CCc2cc(OC)c(OC)cc2/C1=C\c1ccc(OC)c(OC)c1 | 68.5 | 40.3 | > 10 | 92.7 |  | > 100 | 63.4 |  |  |  |  |  |  |  |  |  |  |  |  | 
CC(=O)[O-].[Mn+3].[O-]c1ccccc1C=NCCNCCN=Cc1ccccc1[O-] |  | > 100 | > 100 | > 100 | > 100 | > 100 | > 100 |  |  |  |  |  |  |  | > 100 | > 100 | > 100 | > 100 | > 100 | > 100
